The text below walks through data of ChEMBL document CHEMBL4431300 (Medchemcomm, 2016).

The subject of assay [1] is A2780. Kind of assay: Antiproliferative activity against human A2780 cells after 72 hrs at 37 degC by MTT assay. It is filed as functional, cell-based. Particulars: A2780, 72 h. (Tetrazolium assays rely on reduction of a dye to a coloured formazan, in cell work by metabolically active cells.)
Assay [2] can be described thus: Antiproliferative activity against embryonic stem cells in intact mouse embryoid bodies. Format: functional, cell-based.
For the next assay, the system named is HEK293. Kind of assay: Antiproliferative activity against HEK293 cells after 72 hrs at 37 degC by CellTiter-Glo luminescence assay. Format: cell-based. Particulars: Homo sapiens, HEK293, 72 h. (In general: Cellular ATP, detected with luciferase, serves as a proxy for viable cell number.)
Assay [3] is described as follows: Antiproliferative activity against immortalized human ECRF24 cells after 72 hrs at 37 degC by CellTiter-Glo luminescence assay. It is filed as functional. Conditions: ECRF24, 72 h.
The nature of assay [4]: Antiproliferative activity against human A2780cis cells after 72 hrs at 37 degC by MTT assay. Format: functional, cell-based.
Assay [5] concerns Chorioallantoic membrane. Kind of assay: Antiangiogenic activity in chicken fertilized egg chorioallantoic membrane assessed as avascular zone by measuring reduction in number of branching points at 20 ug/kg/day, iv administered as bolus dose on embryo development day 11 for 3 days by epifluorescence microscopic analysis relative to control. Format: functional. Particulars: Gallus gallus.

The species entered for the next assay is Homo sapiens. Kind of assay: Antimigratory activity against human ECRF24 cells assessed as wound closure at 6 to 50 uM after 7 hrs by wound healing assay. Format: functional, cell-based.
Assay [6] has as its system A2780. Kind of assay: Antitumor activity against human A2780 cells implanted in chicken fertilized egg chorioallantoic membrane assessed as tumor growth inhibition at 487 ug/kg/day, iv administered as bolus dose on embryo development day 11 for 3 days measured up to 8 days post treatment relative to control. Particulars: Gallus gallus, read-out: TGI. Format: functional.

Assay [7] deals with Chorioallantoic membrane. Kind of assay: Antiangiogenic activity in chicken fertilized egg chorioallantoic membrane assessed as avascular zone by measuring reduction in number of branching points at 55 ug/kg/day, iv administered as bolus dose on embryo development day 11 for 3 days by epifluorescence microscopic analysis relative to control. Format: functional. Conditions: Gallus gallus.

The subject of assay [8] is Chorioallantoic membrane. Kind of assay: Antiangiogenic activity in chicken fertilized egg chorioallantoic membrane assessed as inhibition of vascular sprout formation at 487 ug/kg/day, iv administered as single bolus dose 1 min post 5 Jcm'-2 light irradiation on embryo development day 11 measured 24 hrs post dose by epifluorescence microscopic analysis. Format: functional, organism-based. Conditions: Gallus gallus.

In assay [9] the test system is Chorioallantoic membrane. Kind of assay: Antiangiogenic activity in chicken fertilized egg chorioallantoic membrane assessed as inhibition vascular sprout formation at 97 ug/kg/day, iv administered as single bolus dose 1 min post 5 Jcm'-2 light irradiation on embryo development day 11 measured 24 hrs post dose by epifluorescence microscopic analysis. It is filed as functional, organism-based. Conditions: Gallus gallus.

The subject of assay [10] is Chorioallantoic membrane. Kind of assay: Antiangiogenic activity in chicken fertilized egg chorioallantoic membrane assessed as avascular zone by measuring reduction in number of branching points at 49 ug/kg/day, iv administered as bolus dose on embryo development day 11 for 3 days by epifluorescence microscopic analysis relative to control. It is filed as functional. Conditions: Gallus gallus.

The subject of assay [11] is A2780. Kind of assay: Antitumor activity against human A2780 cells implanted in chicken fertilized egg chorioallantoic membrane assessed as tumor growth inhibition at 435 ug/kg/day, iv administered as bolus dose on embryo development day 11 for 3 days measured up to 8 days post treatment relative to control. It is filed as functional. Particulars: Gallus gallus, read-out: TGI.

In assay [12] the test system is A2780. Kind of assay: Antitumor activity against human A2780 cells implanted in chicken fertilized egg chorioallantoic membrane assessed as tumor growth inhibition at 64 ug/kg/day, iv administered as bolus dose on embryo development day 11 for 3 days measured up to 8 days post treatment relative to control. Format: functional. Particulars: Gallus gallus, read-out: TGI.

Assay [13] has as its system Chorioallantoic membrane. Kind of assay: Antiangiogenic activity in chicken fertilized egg chorioallantoic membrane assessed as inhibition of vascular sprout formation at 64 ug/kg/day, iv administered as single bolus dose 1 min post 5 Jcm'-2 light irradiation on embryo development day 11 measured 24 hrs post dose by epifluorescence microscopic analysis. Format: functional, organism-based. Conditions: Gallus gallus.

Assay [14] has as its system Chorioallantoic membrane. Kind of assay: Antiangiogenic activity in chicken fertilized egg chorioallantoic membrane assessed as avascular zone by measuring reduction in number of branching points at 36 ug/kg/day, iv administered as bolus dose on embryo development day 11 for 3 days by epifluorescence microscopic analysis relative to control. Conditions: Gallus gallus. It is filed as functional.

The test system of assay [15] is Chorioallantoic membrane. Kind of assay: Antiangiogenic activity in chicken fertilized egg chorioallantoic membrane assessed as inhibition of vascular sprout formation at 435 ug/kg/day, iv administered as single bolus dose 1 min post 5 Jcm'-2 light irradiation on embryo development day 11 measured 24 hrs post dose by epifluorescence microscopic analysis. Format: functional, organism-based. Conditions: Gallus gallus.

pIC50: −log10 of the molar value. Converted amounts (≈) assume the structure as drawn. The source made the active and inactive calls. No cut-off for these calls is given here.

For the compound `O=C(O)CCCc1ccc(N(CCCl)CCCl)cc1` [CHLORAMBUCIL], the pIC50 was 4.92 with A2780 [1], 4.60 with HEK293, 5.10 in assay [3] and 4.37 in assay [4]. This compound returned an IC50 in [2] of 1.25 µg/mL (≈ 4.11 µM). The inhibition in vivo at 0.02 mg/kg/day with Chorioallantoic membrane [5] worked out at 33%.

Take `O=C(CCCc1ccc(N(CCCl)CCCl)cc1)OCCC(F)(F)C(F)(F)C(F)(F)C(F)(F)C(F)(F)C(F)(F)C(F)(F)C(F)(F)C(F)(F)C(F)(F)F`: the pIC50 with A2780 [1] is less than 3.70; in the assay on HEK293, less than 3.70; in assay [3], 4.18; in assay [4], less than 3.70. Besides, the outcome in the assay listed under Homo sapiens was inactive. For the same compound, in the assay on A2780 [6], the inhibition in vivo at 0.487 mg/kg/day was 70%. In addition, the inhibition in vivo at 0.055 mg/kg/day in the assay with Chorioallantoic membrane [7] was 59%. For the same compound, the inhibition entry in the assay on Chorioallantoic membrane [8] and in the assay on Chorioallantoic membrane [9] was “inactive” in each case.

On to `O=C(CCCc1ccc(N(CCCl)CCCl)cc1)OCCC(F)(F)C(F)(F)C(F)(F)C(F)(F)C(F)(F)C(F)(F)C(F)(F)C(F)(F)F`, for which the pIC50 was 4.42 with A2780 [1], 4.24 with HEK293, 4.28 in assay [3] and 4.60 in [4]. The inhibition in vivo at 0.049 mg/kg/day in the assay with Chorioallantoic membrane [10] is 29%.

As for `CCCCCCCCCCCCCCCCCCOC(=O)CCCc1ccc(N(CCCl)CCCl)cc1`, the pIC50 in the assay with A2780 [1] was less than 3.70; in the assay on HEK293, less than 3.70; in [3], 4.05; in assay [4], less than 3.70. Also, the inhibition in vivo at 0.435 mg/kg/day in the assay on A2780 [11] came to 49.5%. Further, the outcome in the assay listed under Homo sapiens was inactive. The inhibition in vivo at 0.064 mg/kg/day with A2780 [12] turned out to be 53%. Moreover, the inhibition entry in the assay with Chorioallantoic membrane [13] was “Active”. The inhibition in vivo at 0.036 mg/kg/day with Chorioallantoic membrane [14] came out at 20%. In addition, the inhibition result in the assay with Chorioallantoic membrane [15] is “inactive”.

The pIC50 is the IC50 on a negative log10 scale, so that one unit is a factor of ten. Usually IC50 stands for the concentration that inhibits the measured activity by half.
